Measured values: PMC11084959 (International Journal of Molecular Sciences, 2024)
“Also recorded” adds a separate entry of the source. Where a SMILES comes first, the peptide text is derived from it. Bridges are numbered along the chain shown (N, C = ends). Where no end group is shown, it is not given here.

How the values were obtained:
[1] = molecular target: T1, recombinant hCaV3.2 channels (Homo sapiens, UniProt O95180); assay: QPatch whole-cell patch-clamp, CaV3.2; type: cell-based
T1 construct: expressed in transfected cells
Method: (§1) The human embryonic kidney 293 (HEK 293) cell lines (from Emmanuel Bourinet, Montpellier, France) stably expressing CaV3.2 or CaV3.3 [41] were cultured under 5% carbon dioxide at 37 °C in Dulbecco’s Modified Eagle Medium (DMEM) Glutamax (Gibco, Life Technologies, Carlsbad, CA, USA) supplemented with 10% (v/v) fetal bovine serum (FBS), 100 U/mL penicillin, 100 μg/mL streptomycin (Gibco, Life Technologies), and 750 μg/mL geneticin (G418) (Gibco, Life Technologies). The Chinese Hamster Ovary (CHO) cell lines (Emmanuel Bourinet, Montpellier, France) expressing CaV3.1 [42] were cultured under 5% carbon dioxide at 37 °C in Alpha Minimum Essential Media (MEM) Glutamax (Gibco, Life Technologies), supplemented with 10% (v/v) fetal bovine serum (FBS) and 300 μg/mL geneticin (G418) (Gibco, Life Technologies). The human neuroblastoma SH-SY5Y cells (Victor Diaz, Goettingen, Germany) were cultured under 5% carbon dioxide at 37 °C in RPMI 1640 antibiotic-free medium (Invitrogen, Carlsbad, CA, USA), supplemented with 15% FBS and 2 mM GlutaMAX™ (Invitrogen). D-PBS (Gibco, Life Technologies) was used to wash the cells, and 0.25% Trypsin-EDTA (Gibco, Life Technologies) was used to detach the cells from the flask surface. They were split in a ratio of 1:5 (ideally 1000 cells/cm^2) when they reached 70–80% confluence (every 2–3 days).
(§2) Whole-cell patch-clamp experiments were performed on an automated electrophysiology platform QPatch 16 X (Sophion Bioscience A/S, Ballerup, Denmark) in a single-hole configuration using 16-channel planar patch chip QPlates (Sophion Bioscience A/S). The extracellular recording solution contained, in mM: TEACl 157, MgCl2 0.5, CaCl2 5, and HEPES 10; pH 7.4 adjusted with TEAOH; and osmolarity 320 mOsm. The intracellular pipette solution contained, in mM: CsF 140, EGTA 1, HEPES 10, and NaCl 10; pH 7.2 adjusted with CsOH; and osmolarity 325 mOsm. […]
(§3) The data were plotted and analyzed using GraphPad Prism v8.0 (GraphPad Software Inc., San Diego, CA, USA). […]

[2] = molecular target: T2, recombinant hCaV3.3 channels (Homo sapiens, UniProt Q9P0X4); assay: QPatch whole-cell patch-clamp, CaV3.3; type: cell-based
T2 construct: expressed in transfected cells
Method: as §1, §2, §3

[3] = system: recombinant hCaV3.1 channel; assay: QPatch whole-cell patch-clamp, CaV3.1; type: cell-based; settings: human CaV3.1 in CHO cells
Method: as §1, with “They were split in a ratio of 1:5 (ideally 1000 cells/cm^2) when they reached 70–80% confluence (every 2–3 days).” left out
as §3

[4] = system: human HVA N-type CaV2.2; assay: N-type CaV2.2 FLIPR assay in SH-SY5Y cells; type: cell-based; settings: 0.781–200 µM, 10 µM nifedipine, agonist 90 mM KCl + 5 mM CaCl2, n = 4
Method: as §1, with “D-PBS (Gibco, Life Technologies) was used to wash the cells, and 0.25% Trypsin-EDTA (Gibco, Life Technologies) was used to detach the cells from the flask surface. They were split in a ratio of 1:5 (ideally 1000 cells/cm^2) when they reached 70–80% confluence (every 2–3 days).” left out
(§4) SH-SY5Y cells were seeded into 384-well black wall clear bottom plates at a density of 15,000 cells per well, resulting in 90–95% confluence after 24 h. […] The fluorescence readings were recorded and converted as described previously, and an agonist containing 90 mM KCl + 5 mM CaCl2 was used in the second addition.

[5] = system: L-type CaVs; assay: L-type CaV FLIPR assay in SH-SY5Y cells; type: cell-based, human; settings: 0.781–200 µM, 1 µM CVID, agonist 90 mM KCl + 5 mM CaCl2, n = 4
Method: as §1, with “D-PBS (Gibco, Life Technologies) was used to wash the cells, and 0.25% Trypsin-EDTA (Gibco, Life Technologies) was used to detach the cells from the flask surface. They were split in a ratio of 1:5 (ideally 1000 cells/cm^2) when they reached 70–80% confluence (every 2–3 days).” left out
as §4

[6] = system: Lucilia cuprina (Australian sheep blowflies); assay: Insecticidal activity against sheep blowflies (injection); type: in vivo; settings: 1, 4 and 10 μg per fly injected; 10 flies per group; paralytic effects at 0.5, 1, 2 and 24 h
[7] = system: T-type CaVs (CaV3.1 and CaV3.2); settings: ref [9],[10]; cited from earlier work
Excerpt: Scorpions are venomous arachnids of the order Scorpiones, with around 2798 currently (December 2023) described species distributed on all continents except Antarctica. Scorpion venoms are complex mixtures of peptides, enzymes, mucoproteins, amino acids (aa), nucleotides, lipids, amines, heterocyclic components, inorganic salts, and probably other yet to be described substances. They are rich sources of neurotoxic polypeptides that recognize and bind to ion channels of excitable and non-excitable cells and modulate their functional properties. Based on the specific binding propertie ...

T2 sequence (Q9P0X4 whole entry): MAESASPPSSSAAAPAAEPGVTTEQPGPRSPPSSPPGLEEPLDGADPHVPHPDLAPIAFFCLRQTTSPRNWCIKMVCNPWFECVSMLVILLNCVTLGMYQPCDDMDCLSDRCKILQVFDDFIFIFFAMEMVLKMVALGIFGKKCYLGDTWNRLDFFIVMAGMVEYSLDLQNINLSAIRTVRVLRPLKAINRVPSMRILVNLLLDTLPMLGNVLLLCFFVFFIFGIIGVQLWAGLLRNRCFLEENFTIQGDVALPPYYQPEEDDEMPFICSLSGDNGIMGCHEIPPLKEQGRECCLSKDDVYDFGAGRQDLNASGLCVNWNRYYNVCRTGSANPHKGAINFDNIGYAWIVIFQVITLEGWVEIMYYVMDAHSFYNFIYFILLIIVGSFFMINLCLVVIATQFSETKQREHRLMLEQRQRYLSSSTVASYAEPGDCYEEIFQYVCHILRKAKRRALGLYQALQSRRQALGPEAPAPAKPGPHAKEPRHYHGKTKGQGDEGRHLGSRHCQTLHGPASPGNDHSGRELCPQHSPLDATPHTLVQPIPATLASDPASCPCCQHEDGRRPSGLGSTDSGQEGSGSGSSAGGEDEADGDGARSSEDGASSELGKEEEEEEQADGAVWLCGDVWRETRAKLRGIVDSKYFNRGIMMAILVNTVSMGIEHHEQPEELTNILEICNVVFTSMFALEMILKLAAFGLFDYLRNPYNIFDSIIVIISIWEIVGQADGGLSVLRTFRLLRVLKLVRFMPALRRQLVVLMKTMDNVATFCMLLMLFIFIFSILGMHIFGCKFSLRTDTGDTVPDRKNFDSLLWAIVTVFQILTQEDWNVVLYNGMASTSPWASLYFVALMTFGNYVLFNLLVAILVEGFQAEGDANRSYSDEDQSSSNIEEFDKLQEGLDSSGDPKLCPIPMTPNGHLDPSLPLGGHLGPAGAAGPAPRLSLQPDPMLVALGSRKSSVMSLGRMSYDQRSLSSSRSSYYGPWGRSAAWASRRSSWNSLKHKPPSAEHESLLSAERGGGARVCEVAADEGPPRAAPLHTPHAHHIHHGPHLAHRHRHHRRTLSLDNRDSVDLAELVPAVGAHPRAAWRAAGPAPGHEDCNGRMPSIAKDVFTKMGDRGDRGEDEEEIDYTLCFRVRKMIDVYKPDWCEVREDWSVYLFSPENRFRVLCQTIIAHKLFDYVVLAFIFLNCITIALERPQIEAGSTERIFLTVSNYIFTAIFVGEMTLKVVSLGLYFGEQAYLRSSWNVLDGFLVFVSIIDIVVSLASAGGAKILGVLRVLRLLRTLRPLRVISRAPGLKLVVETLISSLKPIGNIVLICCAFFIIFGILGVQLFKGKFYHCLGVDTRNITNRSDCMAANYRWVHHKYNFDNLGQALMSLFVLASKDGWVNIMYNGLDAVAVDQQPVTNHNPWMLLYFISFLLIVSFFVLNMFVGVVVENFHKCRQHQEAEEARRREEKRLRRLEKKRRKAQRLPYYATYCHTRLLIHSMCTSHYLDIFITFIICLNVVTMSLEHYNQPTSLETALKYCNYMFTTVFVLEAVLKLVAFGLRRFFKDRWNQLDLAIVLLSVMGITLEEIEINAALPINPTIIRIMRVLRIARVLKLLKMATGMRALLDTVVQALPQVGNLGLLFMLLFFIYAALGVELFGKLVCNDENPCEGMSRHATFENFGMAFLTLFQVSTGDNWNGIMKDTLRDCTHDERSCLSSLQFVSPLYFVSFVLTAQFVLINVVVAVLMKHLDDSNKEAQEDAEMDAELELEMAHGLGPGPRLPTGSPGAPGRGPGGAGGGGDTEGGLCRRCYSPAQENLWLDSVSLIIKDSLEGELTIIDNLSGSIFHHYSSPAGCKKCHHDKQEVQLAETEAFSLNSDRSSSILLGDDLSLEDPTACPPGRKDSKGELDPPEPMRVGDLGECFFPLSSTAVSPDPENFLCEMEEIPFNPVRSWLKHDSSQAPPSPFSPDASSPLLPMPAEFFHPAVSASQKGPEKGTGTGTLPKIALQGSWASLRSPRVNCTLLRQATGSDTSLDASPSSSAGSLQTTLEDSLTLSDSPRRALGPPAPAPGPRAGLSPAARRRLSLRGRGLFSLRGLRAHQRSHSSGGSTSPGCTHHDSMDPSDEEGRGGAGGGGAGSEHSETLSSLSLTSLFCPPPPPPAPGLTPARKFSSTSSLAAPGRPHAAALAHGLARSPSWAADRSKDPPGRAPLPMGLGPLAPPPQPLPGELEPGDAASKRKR
T1 sequence (O95180 whole entry): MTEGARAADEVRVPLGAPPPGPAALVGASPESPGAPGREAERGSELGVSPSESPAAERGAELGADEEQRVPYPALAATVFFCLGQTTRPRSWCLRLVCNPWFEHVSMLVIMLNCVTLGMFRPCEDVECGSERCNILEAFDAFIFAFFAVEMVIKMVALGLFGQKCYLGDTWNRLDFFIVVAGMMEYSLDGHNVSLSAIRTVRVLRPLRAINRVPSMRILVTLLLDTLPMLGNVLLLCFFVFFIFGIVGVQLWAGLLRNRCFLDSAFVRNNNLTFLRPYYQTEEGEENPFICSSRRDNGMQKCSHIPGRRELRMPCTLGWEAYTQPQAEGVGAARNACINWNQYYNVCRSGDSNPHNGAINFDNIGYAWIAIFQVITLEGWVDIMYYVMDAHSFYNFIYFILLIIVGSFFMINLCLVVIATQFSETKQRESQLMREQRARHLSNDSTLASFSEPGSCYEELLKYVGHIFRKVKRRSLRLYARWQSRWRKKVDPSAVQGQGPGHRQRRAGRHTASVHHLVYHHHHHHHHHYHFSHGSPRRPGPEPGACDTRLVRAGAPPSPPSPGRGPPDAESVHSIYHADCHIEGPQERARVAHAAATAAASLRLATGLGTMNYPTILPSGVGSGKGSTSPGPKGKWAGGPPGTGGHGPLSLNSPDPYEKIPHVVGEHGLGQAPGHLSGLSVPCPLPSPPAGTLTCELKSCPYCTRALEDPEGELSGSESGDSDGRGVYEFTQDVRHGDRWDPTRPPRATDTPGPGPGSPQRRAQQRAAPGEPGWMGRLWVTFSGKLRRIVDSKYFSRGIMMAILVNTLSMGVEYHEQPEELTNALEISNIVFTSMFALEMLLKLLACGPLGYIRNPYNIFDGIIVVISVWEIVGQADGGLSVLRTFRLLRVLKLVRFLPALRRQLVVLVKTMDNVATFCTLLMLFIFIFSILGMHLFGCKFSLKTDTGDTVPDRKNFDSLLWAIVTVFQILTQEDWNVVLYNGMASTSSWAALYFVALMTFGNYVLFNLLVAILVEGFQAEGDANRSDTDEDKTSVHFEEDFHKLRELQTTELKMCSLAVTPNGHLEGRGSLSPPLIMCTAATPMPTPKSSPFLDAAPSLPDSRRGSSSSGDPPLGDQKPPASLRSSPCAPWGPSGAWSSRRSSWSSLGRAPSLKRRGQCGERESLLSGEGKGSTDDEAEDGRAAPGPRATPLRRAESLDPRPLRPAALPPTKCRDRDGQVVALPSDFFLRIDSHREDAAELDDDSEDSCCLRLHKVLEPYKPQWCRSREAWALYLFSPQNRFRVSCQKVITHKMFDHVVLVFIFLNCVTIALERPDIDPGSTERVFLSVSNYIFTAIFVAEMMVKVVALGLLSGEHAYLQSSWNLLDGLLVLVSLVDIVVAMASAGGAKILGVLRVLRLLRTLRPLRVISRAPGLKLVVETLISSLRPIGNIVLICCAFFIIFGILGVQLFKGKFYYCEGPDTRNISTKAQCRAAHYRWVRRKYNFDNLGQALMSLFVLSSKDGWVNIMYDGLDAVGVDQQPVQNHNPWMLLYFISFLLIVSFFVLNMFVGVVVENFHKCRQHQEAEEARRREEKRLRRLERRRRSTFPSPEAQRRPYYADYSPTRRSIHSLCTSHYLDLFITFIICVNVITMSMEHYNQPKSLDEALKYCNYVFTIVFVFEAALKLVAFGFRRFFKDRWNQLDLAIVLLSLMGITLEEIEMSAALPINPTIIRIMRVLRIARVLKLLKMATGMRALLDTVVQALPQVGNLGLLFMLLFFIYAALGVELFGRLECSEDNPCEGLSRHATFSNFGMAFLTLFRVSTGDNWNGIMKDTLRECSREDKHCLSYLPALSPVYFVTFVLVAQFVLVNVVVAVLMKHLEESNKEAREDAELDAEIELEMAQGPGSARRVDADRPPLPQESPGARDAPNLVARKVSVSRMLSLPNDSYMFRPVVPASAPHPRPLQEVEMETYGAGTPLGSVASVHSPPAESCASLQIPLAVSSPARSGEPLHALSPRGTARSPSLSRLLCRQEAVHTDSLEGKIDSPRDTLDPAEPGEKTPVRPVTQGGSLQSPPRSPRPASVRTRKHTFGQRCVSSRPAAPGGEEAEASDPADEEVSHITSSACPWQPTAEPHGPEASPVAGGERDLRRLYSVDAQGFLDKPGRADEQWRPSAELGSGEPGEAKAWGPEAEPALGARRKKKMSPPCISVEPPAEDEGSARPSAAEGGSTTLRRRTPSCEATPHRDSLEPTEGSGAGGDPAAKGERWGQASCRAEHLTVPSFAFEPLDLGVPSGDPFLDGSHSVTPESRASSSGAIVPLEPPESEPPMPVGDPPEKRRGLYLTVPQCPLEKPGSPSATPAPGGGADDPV

C[C@@H](O)[C@@H]1NC(=O)[C@@H](NC(=O)[C@@H](N)Cc2c[nH]cn2)CSSC[C@@H](C(=O)N[C@@H](Cc2c[nH]c3ccccc23)C(N)=O)NC(=O)[C@H](Cc2c[nH]cn2)NC(=O)[C@H](CC(N)=O)NC(=O)[C@H](CO)NC(=O)[C@H](CC(N)=O)NC(=O)[C@@H]2CCCN2C1=O [Hf1a-NH2] (H-HCTPNSNHCW-NH2; disulfide 2-9)
inhibition at 25 µM ([1]; 25 μM, holding −90 mV, 200 ms to −25 mV, n = 4, read-out: CaV3.2 current inhibition at 25 μM): 31.7% | IC50 ([1]; partial inhibition, QPatch, holding −90 mV, 200 ms steps to −25 mV, 5 mM CaCl2, 0.1% BSA, pH 7.4, n = 4, means ± SEM, read-out: IC50 (CaV3.2 depolarized currents)): 1180 nM | inhibition at 25 µM ([2]; 25 μM, holding −90 mV, 200 ms to −10 mV, n = 4, read-out: CaV3.3 current inhibition at 25 μM): 44.6% | IC50 ([2]; partial inhibition, QPatch, holding −90 mV, 200 ms steps to −10 mV, 5 mM CaCl2, 0.1% BSA, pH 7.4, n = 4, means ± SEM, read-out: IC50 (CaV3.3 depolarized currents)): 490 nM | Adverse effects on locomotor performance (24 h post-injection, intraplantar): no adverse effects on locomotor performance | Abnormal motor function during treadmill run (mouse, in vivo): no abnormal motor functions like foot slips were noticed | Distance covered on treadmill (mouse, in vivo): showed no difference

HCTPNSNHCW (disulfide 2-9 (inferred)) [Hf1a-OH]
Effect on CaV3.1 current (in words) [3]: failed to show activity in any of the three subtypes; also recorded: did not show activity against any of the three T-type subtypes | Effect on CaV3.2 current (in words) ([1]; QPatch, human CaV3.2 in HEK 293 cells): failed to show activity in any of the three subtypes; also recorded: did not show activity against any of the three T-type subtypes | Effect on CaV3.3 current (in words) ([2]; QPatch, human CaV3.3 in HEK 293 cells): failed to show activity in any of the three subtypes; also recorded: did not show activity against any of the three T-type subtypes | Effect on N-type CaV2.2 [4]: neither form showed activity; also recorded: neither form of ω-Buthitoxin-Hf1a affected N-type or L-type CaVs; also recorded: Neither Hf1a-NH2 nor Hf1a-OH showed activity against L- and N-type HVA CaVs | Effect on L-type CaVs [5]: neither form showed activity; also recorded: neither form of ω-Buthitoxin-Hf1a affected N-type or L-type CaVs; also recorded: Neither Hf1a-NH2 nor Hf1a-OH showed activity against L- and N-type HVA CaVs | Insecticidal activity against adult sheep blowflies [6]: no insecticidal activity; also recorded: neither Hf1a-OH nor Hf1a-NH2 showed observable insecticidal activity

B1: kurtoxin (protein, UniProt P58910 1-63, looked up)
Kurtoxin: KIDGYPVDYWNCKRICWYNNKYCNDLCKGLKADSGYCWGWTLSCYCQGLPDNARIKRSGRCRA
Selective binding to T-type CaVs (CaV3.1 and CaV3.2) [7]: first and only scorpion toxin shown to selectively bind T-type CaVs (CaV3.1 and CaV3.2)
